Experimental data taken from US20020037933A1, “Management of septic shock” (priority 2000, published 2002).

Test system: endotoxemic pigs (E. coli endotoxin infusion)
[1] = during the endotoxemic period, versus fat emulsion

## CC(C)c1cccc(C(C)C)c1O [propofol, 2,6-diisopropylphenol]
Already anaesthetised endotoxaemic pigs
  deaths from hypotension and/or release of gut bacteria into the bloodstream: No deaths
[1]
  arterial carbon dioxide tension (PaCO2): lower
  arterial oxygen tension (PaO2): higher
Endotoxaemic pigs
  counteracting endotoxin induced deterioration of arterial oxygen tension (PaO2): effective
